Assays:
[1] = system: mouse macrophage RAW264.7 cells; assay: Cell number after 5 hours incubation with or without LPS; format: cell-based; conditions: DHMBA 0.1-1000 μM
Method: RAW264.7 cells (1×10^5/ml/well) were cultured in a DMEM culture medium containing 10% FBS, 1% P/S, and 1% fungizone. Cells were treated with a vehicle (1% ethanol; DHMBA 0 μM as final concentration) or DHMBA (0.1, 1, 10, 100, or 1000 μM) and incubated for 5 hours (FIG. 6A).
Cells (1×10^5/ml per well) were cultured for 3 days in a DMEM culture medium containing 10% FBS, 1% P/S, and 1% fungizone in the presence of LPS (100 ng/ml in all cultures). Cells were treated with a vehicle (1% ethanol; DHMBA 0 μM as final concentration) or DHMBA (0.1, 1, 10, 100, or 1000 μM) and incubated for 5 hours (FIG. 6B).
After the culture, the number of cells attached to the dish was counted. Data are presented as the mean±SD from a total of 8 wells of two plates using different cell preparations. […] No significant changes were observed by […] LPS treatment compared to the controls (gray bars). Statistical analysis was performed using 1-way ANOVA with Tukey-Kramer post-test.
RAW264.7 cells (1×10^5/ml per well) were cultured in a DMEM culture medium containing 10% FBS and 1% P/S using a 24-well plate for 3 days until they reached subconfluence. […] The concentrations of TNF-α, IL-6, IL-⊕, and PGE2 in the culture medium were measured using ELISA kits. […] The amount of each cytokine produced was expressed as pictograms (pg) secreted into the culture medium (ml).

[2] = system: RAW264.7 cells stimulated with LPS; assay: Measurement of osteoclast formation (TRACP-positive MNCs); format: cell-based, mouse
Method: Cells (1×10^5 cells/1 ml per well in a 24-well plate) were cultured for 3 days in DMEM containing 10% FBS, 1% P/S, and 1% fungizone in the control group (1% ethanol as final concentration) and in the DHMBA-treated group (0.1, 1, 10, or 100 μM) with or without LPS (100 ng/ml). The old culture medium was replaced with fresh conditioned culture medium (0.5 ml) containing LPS and/or DHMBA, and the cells were cultured for another 3 days (FIG. 9A). Cells (1×10^5 cells/1 ml per well in a 24-well plate) were cultured for 3 days in the above DMEM culture medium with LPS (100 ng/ml) but without DHMBA. […] TRACP-positive multinucleated cells (MNCs) (with 3 or more nuclei) were counted as osteoclast-like cells under a microscope (40× magnification). […]
RAW264.7 cells (1×10^5 cells/1 ml per well in a 24-well plate) were cultured for 3 days in a DMEM culture medium containing 10% FBS, 1% P/S, and 1% fungizone in the control group (1% ethanol in the culture medium as final concentration) and the LPS-treated group (100 ng/ml in the culture medium) with or without DHMBA (0.1, 1, 10, or 100 μM). […] TRACP-positive multinucleated cells (MNCs) having three or more nuclei were counted as osteoclast-like cells under a microscope (40× magnification) (Olympus MTV-3; Olympus Corp., Tokyo, Japan). […]

## COc1c(O)cc(CO)cc1O [DHMBA, 3,5-dihydroxy-4-methoxybenzyl alcohol]
[1]; LPS 100 ng/ml
  number of RAW264.7 cells: remained unchanged
[1]; absence of LPS
  number of RAW264.7 cells: remained unchanged
[2]; 3 days LPS 100 ng/ml alone, then 3 days LPS plus DHMBA 0.1, 1, 10 or 100 μM
  LPS-enhanced osteoclast formation, late stage: suppressed
[2]; LPS 100 ng/ml and DHMBA 0.1, 1, 10 or 100 μM together for 6 days
  LPS-enhanced osteoclast formation: suppressed

From patent US20260041649A1, “ANTI-INFLAMMATORY AGENT” (WATANABE OYSTER LABORATORY, CO., LTD., priority 2023, published 2026)
